Experimental findings from US9289388B2, “Methods and compositions for delivery of medicaments to the lungs” (Paka Pulmonary Pharmaceuticals, Inc., priority 2008, dated 2016) are described below.

The test system of one assay is mice exposed to HNE. The assay is described as follows: Bronchoalveolar lavage of the lungs following HNE exposure (lung blood cell level). It counts as in vivo. The procedure: A total of 14 animals were used in this study. Anesthetized mice received 0.1 ml of solution delivered by a blunt tip catheter to the opening of the trachea and the animals allowed to aspirate the solution into their lungs (this method is also referred to as intratracheal instillation). All animals were exposed to the treatment for 2 hours and re-anesthetized. Bronchoalveolar lavage of the lungs was performed as described below. […] Target 2 (a potent HNE inhibitor developed by Zeneca in the early 1990s) when given with the HNE, reduced the average blood level in the lungs by 34% to 0.035 grams. Target C (the Zeneca molecule covalently attached to the N-terminus of the first 25 residues of the human surfactant B peptide) when given with the HNE reduced the average blood level in the lungs by 87% to 0.007 grams.
A set of animals was used to determine the optimal concentration of HNE for the study. […] The amount of HNE was reduced to 40 micrograms to maintain a maximal detrimental but survivable effect. The animals exposed to 40 micrograms of HNE were able to survive long enough to perform the complete study. All animals remaining in the complete study were exposed to 40 micrograms of HNE.
(§1) Target 2 (the Zeneca molecule) was given in a 70-fold molar excess relative to HNE. In the kinetic studies, Target 2 has 2 nM affinity. […] Accordingly, the Target C was given to the animals in a 100 fold molar excess relative to HNE in these studies.
Bronchio-Alveolar lavage (BAL) is performed by 1) anesthetizing the animals; 2) performing a tracheotomy on the animals and cutting open the chest and spreading the ribs to enable full lung expansion; 3) pressurizing 1 ml of PBS buffer solution into the lungs through the tracheotomy catheter; 4) sucking the solution out of the lungs; 5) centrifuging the recovered solution to separate the red blood cell fraction from the liquid fraction; and 6) weighing the red blood cell fraction.

For assay [1], the system named is mice with HNE induced emphysema. The assay is described as follows: HNE induced emphysema, intratracheal delivery, lung histology and mean linear intercept after four weeks. It counts as in vivo. The method, then: A total of 42 animals were used in this study. Anesthesized mice received 0.1 ml of solution delivered by intratracheal instillation as described above in Example 4. Animals were divided into the following treatment groups: four animals received saline only; ten animals received HNE only; four animals received the Zeneca inhibitor (target 2) only; eight animals received HNE mixed with the Zeneca inhibitor (target 2); eight animals received Zeneca inhibitor linked to a lung surfactant peptide (target C) only; and eight animals received HNE mixed with Zeneca inhibitor linked to a lung surfactant peptide (target C). Animals receiving HNE were instilled with 40 micrograms HNE. Target 2 (Zeneca inhibitor) was administered in a 70-fold molar excess relative to HNE and Target C (Zeneca inhibitor linked to a lung surfactant peptide) was administered in a 100 fold molar excess relative to HNE as described in Example 4.
All animals were observed a four week period prior to sacrifice following IRB approved protocols and the lungs from each animal were removed for sectioning. The Hilar and central region was sectioned from the left lung and the caudal region was sectioned from the right lung of each animal. Lung sections were scored using blind-scoring by an expert as “E” for emphysema and “N” for no emphysema.
The distance between adjacent alveolar walls was also measured to quantitate the degree of lung destruction for each treatment group. Lung sections obtained from each animal were analyzed under a microscope (which is connected to a computer) and lines were drawn over the lung sections between adjacent alveolar walls. The distance along the lines was calculated to determine the average distance or mean linear intercept (MLI) between adjacent alveolar walls. An increase in the average distance between adjacent alveolar walls corresponds to an increase in lung destruction.

In another assay the target is T1, HNE (Homo sapiens, UniProt P08246).
T1 sequence (P08246 30-267): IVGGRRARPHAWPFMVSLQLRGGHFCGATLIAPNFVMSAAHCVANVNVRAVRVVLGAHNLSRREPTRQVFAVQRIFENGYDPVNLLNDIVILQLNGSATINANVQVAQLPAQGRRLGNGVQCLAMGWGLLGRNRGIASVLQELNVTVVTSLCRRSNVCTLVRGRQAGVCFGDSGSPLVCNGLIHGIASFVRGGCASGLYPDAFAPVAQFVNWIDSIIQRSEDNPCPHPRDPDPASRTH
Description: kinetic studies of HNE inhibition. It counts as biochemical. The procedure: as §1

The mark [2] stands for this setting: given with 40 micrograms HNE by intratracheal instillation, 2 hours, weight of BAL red blood cell fraction.
The mark [3] stands for this setting: HNE mixed with compound, four weeks, blind scoring.

For the substance Target C (FPIPLPYCWLCRALIKRIQAMIPKG), in the assay with mice exposed to HNE (setting [2]), the “Lung Blood Cell Level, Group mean” value came to 0.007 g; the “Lung Blood Cell Level, Mouse group 1” value turned out to be 0 g; the “Lung Blood Cell Level, Mouse group 2” value is 0.007 g; the “Lung Blood Cell Level, Mouse group 3” value was determined as 0.014 g. The “average blood level in the lungs” value with mice exposed to HNE (given with the HNE, 2 hours, HNE alone 0.053 grams) worked out at 0.007 grams. Besides, the “reduction of the average blood level in the lungs” value with mice exposed to HNE (given with the HNE, versus HNE alone) was 87%. Also, the “MLI (mean linear intercept between adjacent alveolar walls)” value in assay [1] (HNE (40 micrograms) mixed with compound, intratracheal, four weeks, saline only 44.40, HNE only 51.45) was determined as 45.82 μm. Further, in assay [1] (HNE + compound, compared to HNE only and saline only), the “effect on HNE induced emphysema by MLI” value is recorded as “strongly inhibited HNE induced emphysema”. Besides, in assay [1] (setting [3]), the “effect on HNE induced emphysema, lung histology sections” value is “strongly inhibited HNE induced emphysema” and the “lung histology sections compared with animals receiving saline only” value is “could not be distinguished in blind scoring”. In the assay with HNE, the “loss of potency as compared to Target 2” value is “loses approximately two orders of magnitude of potency”. Moreover, in the assay with HNE (read-out: affinity for HNE), the Ki is about 200 nM.
